How the values were obtained:
[1] = target: T1, Vasoactive intestinal polypeptide receptor 1 (Homo sapiens, UniProt P32241); format: cell membranes, Membrane; conditions: ht-29
T1 sequence (P32241 whole entry): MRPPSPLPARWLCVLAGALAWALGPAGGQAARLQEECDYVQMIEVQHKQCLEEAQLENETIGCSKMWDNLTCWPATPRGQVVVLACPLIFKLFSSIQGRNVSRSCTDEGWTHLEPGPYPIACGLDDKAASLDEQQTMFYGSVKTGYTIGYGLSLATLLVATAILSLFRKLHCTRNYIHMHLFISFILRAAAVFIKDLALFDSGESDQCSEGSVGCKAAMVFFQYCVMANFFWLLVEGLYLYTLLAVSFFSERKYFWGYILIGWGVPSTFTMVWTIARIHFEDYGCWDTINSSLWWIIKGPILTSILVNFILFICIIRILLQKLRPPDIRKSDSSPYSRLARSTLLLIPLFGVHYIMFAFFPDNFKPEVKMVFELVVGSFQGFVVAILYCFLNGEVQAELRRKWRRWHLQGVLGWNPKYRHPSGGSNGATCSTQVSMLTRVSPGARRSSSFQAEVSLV

[2] = target: T2, Muscarinic acetylcholine receptor M4 (Homo sapiens, UniProt P08173); format: cell membranes, CHO-K1, Membrane; conditions: cho-k1
T2 sequence (P08173 whole entry): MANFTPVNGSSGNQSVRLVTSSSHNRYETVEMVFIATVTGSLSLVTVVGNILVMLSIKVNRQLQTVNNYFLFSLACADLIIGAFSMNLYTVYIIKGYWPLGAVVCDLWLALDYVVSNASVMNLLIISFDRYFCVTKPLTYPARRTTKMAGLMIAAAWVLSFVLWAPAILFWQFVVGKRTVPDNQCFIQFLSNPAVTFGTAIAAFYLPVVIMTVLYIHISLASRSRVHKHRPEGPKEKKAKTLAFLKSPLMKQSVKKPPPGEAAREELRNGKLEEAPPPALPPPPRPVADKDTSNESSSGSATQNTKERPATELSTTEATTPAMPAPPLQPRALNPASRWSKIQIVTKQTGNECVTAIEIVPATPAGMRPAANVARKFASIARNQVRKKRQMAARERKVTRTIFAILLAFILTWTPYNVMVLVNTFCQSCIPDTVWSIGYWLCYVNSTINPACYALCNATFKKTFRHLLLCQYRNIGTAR

[3] = target: T3, Alpha-1D adrenergic receptor (Homo sapiens, UniProt P25100); format: cell membranes, HEK293, Membrane; conditions: hek293
T3 sequence (P25100 whole entry): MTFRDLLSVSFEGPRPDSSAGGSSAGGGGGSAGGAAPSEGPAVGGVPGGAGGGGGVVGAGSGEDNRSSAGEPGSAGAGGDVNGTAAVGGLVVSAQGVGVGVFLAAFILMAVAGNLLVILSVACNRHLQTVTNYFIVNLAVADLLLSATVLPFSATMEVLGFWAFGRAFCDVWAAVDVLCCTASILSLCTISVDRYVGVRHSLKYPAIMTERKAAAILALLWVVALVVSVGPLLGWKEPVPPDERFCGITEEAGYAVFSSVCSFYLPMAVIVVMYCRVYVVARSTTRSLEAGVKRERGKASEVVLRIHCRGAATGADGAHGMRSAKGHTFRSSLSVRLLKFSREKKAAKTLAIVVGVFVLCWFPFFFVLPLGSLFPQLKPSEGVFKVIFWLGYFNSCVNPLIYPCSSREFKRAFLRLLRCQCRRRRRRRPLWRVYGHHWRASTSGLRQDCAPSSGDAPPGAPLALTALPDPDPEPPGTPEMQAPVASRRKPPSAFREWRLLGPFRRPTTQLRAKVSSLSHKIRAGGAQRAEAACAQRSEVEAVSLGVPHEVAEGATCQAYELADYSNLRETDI

[4] = target: T4, Receptor-type tyrosine-protein phosphatase C (Homo sapiens, UniProt P08575); parameters: species or system Escherichia coli;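 also: inhibition of CD45 enzyme activity measured using DiFMUP as substrate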
T4 sequence (P08575 whole entry): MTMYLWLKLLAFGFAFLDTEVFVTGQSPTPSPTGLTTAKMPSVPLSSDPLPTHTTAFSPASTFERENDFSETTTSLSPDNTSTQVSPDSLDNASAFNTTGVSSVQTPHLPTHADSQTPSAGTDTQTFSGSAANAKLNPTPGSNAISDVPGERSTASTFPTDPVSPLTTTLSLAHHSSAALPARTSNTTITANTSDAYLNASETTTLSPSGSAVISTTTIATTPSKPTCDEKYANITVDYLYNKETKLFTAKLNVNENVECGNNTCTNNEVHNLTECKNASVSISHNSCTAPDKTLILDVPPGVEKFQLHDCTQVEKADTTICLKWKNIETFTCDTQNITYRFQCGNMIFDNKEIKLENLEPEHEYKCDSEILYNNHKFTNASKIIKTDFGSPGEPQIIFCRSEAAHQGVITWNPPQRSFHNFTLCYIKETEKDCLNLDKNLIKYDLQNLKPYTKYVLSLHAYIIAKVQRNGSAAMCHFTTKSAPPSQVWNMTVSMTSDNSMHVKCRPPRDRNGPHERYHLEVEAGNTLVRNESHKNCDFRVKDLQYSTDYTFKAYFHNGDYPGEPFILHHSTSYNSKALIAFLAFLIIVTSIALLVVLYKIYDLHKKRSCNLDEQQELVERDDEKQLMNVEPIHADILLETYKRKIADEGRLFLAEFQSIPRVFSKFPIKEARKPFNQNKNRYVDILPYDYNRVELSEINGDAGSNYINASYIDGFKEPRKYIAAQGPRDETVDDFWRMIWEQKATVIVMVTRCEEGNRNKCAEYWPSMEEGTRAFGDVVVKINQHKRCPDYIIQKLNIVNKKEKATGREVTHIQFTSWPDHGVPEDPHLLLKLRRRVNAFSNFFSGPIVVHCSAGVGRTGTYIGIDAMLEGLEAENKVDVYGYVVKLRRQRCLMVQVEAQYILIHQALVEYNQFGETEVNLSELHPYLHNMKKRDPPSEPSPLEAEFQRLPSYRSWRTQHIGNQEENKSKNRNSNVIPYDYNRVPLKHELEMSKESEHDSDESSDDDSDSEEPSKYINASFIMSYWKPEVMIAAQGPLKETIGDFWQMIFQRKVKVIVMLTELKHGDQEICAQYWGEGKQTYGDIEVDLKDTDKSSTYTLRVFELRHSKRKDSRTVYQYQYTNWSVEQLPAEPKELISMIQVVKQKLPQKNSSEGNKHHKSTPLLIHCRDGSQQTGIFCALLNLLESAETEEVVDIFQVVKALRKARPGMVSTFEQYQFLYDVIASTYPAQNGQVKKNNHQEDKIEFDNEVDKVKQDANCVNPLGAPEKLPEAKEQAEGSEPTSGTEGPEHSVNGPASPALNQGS
Also: in other assays of this panel Not Active means under 50% inhibition at 10 µM.

C=CC[C@@H]1/C=C(\C)C[C@H](C)C[C@H](OC)[C@H]2O[C@@](O)(C(=O)C(=O)N3CCCC[C@H]3C(=O)O[C@H](/C(C)=C/[C@@H]3CC[C@@H](O)[C@H](OC)C3)[C@H](C)[C@@H](O)CC1=O)[C@H](C)C[C@@H]2OC [TACROLIMUS ANHYDROUS]
Not Active: IC50 [1] | IC50 [2] | IC50 [3] | IC50 [4]

CC1CN(c2cc3c(cc2F)c(=O)c(C(=O)O)cn3-c2ccc(F)cc2F)CCN1 (stereo not given) [TEMAFLOXACIN]
Not Active: IC50 [1] | IC50 [2] | IC50 [3] | IC50 [4]

CC(C)(C)NCC(O)c1cc(O)cc(O)c1 (stereo not given) [TERBUTALINE]
Not Active: IC50 [1] | IC50 [2] | IC50 [3] | IC50 [4]

CN(C)[C@@H]1C(O)=C(C(N)=O)C(=O)[C@@]2(O)C(O)=C3C(=O)c4c(O)cccc4[C@@](C)(O)[C@H]3C[C@@H]12 [TETRACYCLINE]
Not Active: IC50 [1] | IC50 [2] | IC50 [3] | IC50 [4]

c1ccc2[nH]c(-c3cscn3)nc2c1 [THIABENDAZOLE]
Not Active: IC50 [1] | IC50 [2] | IC50 [3] | IC50 [4]

Cc1ccc(C(=O)C(C)CN2CCCCC2)cc1 (stereo not given) [TOLPERISONE]
Not Active: IC50 [1] | IC50 [2] | IC50 [3] | IC50 [4]

COc1cccc(C2(O)CCCCC2CN(C)C)c1 (stereo not given) [TRAMADOL]
Not Active: IC50 [1] | IC50 [2] | IC50 [3] | IC50 [4]

NC(CO)(CO)CO [TROMETHAMINE]
Not Active: IC50 [1] | IC50 [2] | IC50 [3] | IC50 [4]

CN1[C@@H]2CC[C@H]1C[C@@H](OC(=O)c1c[nH]c3ccccc13)C2 [TROPISETRON]
Not Active: IC50 [1] | IC50 [2] | IC50 [3] | IC50 [4]

COc1cc(C(=O)NC2CCCNC2)cc(OC)c1OC (stereo not given) [TROXIPIDE]
Not Active: IC50 [1] | IC50 [2] | IC50 [3] | IC50 [4]

CC(C)[C@H](N)C(=O)OCCOCn1cnc2c(=O)nc(N)[nH]c21 [VALACYCLOVIR]
Not Active: IC50 [1] | IC50 [2] | IC50 [3] | IC50 [4]

CN[C@H](CC(C)C)C(=O)N[C@H]1C(=O)N[C@@H](CC(N)=O)C(=O)N[C@H]2C(=O)N[C@H]3C(=O)N[C@H](C(=O)N[C@H](C(=O)O)c4cc(O)cc(O)c4-c4cc3ccc4O)[C@H](O)c3ccc(c(Cl)c3)Oc3cc2cc(c3O[C@@H]2O[C@H](CO)[C@@H](O)[C@H](O)[C@H]2O[C@H]2C[C@](C)(N)[C@H](O)[C@H](C)O2)Oc2ccc(cc2Cl)[C@H]1O [VANCOMYCIN]
Not Active: IC50 [1] | IC50 [2] | IC50 [3] | IC50 [4]

COc1ccc(C(CN(C)C)C2(O)CCCCC2)cc1 (stereo not given) [VENLAFAXINE]
Not Active: IC50 [1] | IC50 [2] | IC50 [3] | IC50 [4]

IVERMECTIN
Not Active: IC50 [1] | Ki [1] | IC50 [2] | Ki [2] | IC50 [3] | Ki [3] | IC50 [4] | Ki [4]

— ChEMBL document CHEMBL1909046, “DrugMatrix in vitro pharmacology data”
